Experimental data taken from patent publication EP0056152B1, “Process for the after-treatment of linen” (Henkel Kommanditgesellschaft auf Aktien, priority 1981, dated 1982).
Like-named read-outs stand apart in the source and are kept apart here.

How the values were obtained:
Test in all cases: Agar plate test with treated textile pieces (inhibition zone)
Format in all cases: cell-based
[1] = tested on: Epidermophyton floccosum; settings: azole 1 g/l in liquor with 3 g/l fabric softener, 30°C
Method: (§1) Zur Prüfung der antimikrobiellen Wirksamkeit wurde die erfindungsgemäße Ausrüstung der Textilien wie folgt vorgenommen: • 2 x 2 cm große Textilstücke aus Baumwollköper (BW), Wolle (WO) und Nylon (NY) wurden in einer Behandlungsflotte von 20°C 10 Minuten lang bewegt und anschließend bei Raumtemperatur getrocknet. Der Behandlungsflotte waren verschiedene Azolverbindungen in unterschiedlicher Konzentration (s. Tabelle) und 3 g pro 1 Waschflotte eines handelsüblichen Wäscheweichspülmittels mit einem Gehalt an 5 Gew.-% Dimethyl-ditalgalkyl-ammoniumchlorid als textilweichmachender quartärer Ammoniumverbindung zugesetzt. Die Textilproben wurden auf mit unterschiedlichen Testkeimen beimpfte Agarplatten aufgelegt, bis zum Eintritt eines vollen Wachstums bei 30°C bebrütet und dann die antimikrobiellen Effekte abgelesen. Dabei bedeuten: • + = volles Wachstum • 0 = kein Hemmhof, kein Wachstum auf den Läppchen • Zahl = Hemmhof in mm um das Gewebe • (Zahl) = Größe des Hemmhofes mit diffuser Begrenzung in mm.
(§2) In einer weiteren Versuchsreihe wurden andere Azolverbindungen bei einer Anwendungskonzentration von 1 g/I Behandlungsflotte gemeinsam mit dem Wäschebehandlungsmittel der Beispiele 1 bis 7 (Konzentration 3 g/I Behandlungsflotte) eingesetzt. Auch hier wurde ein Vergleichsversuch ohne Azolverbindung durchgeführt.

[2] = tested on: Trichophyton mentagrophytes; settings: 30°C; for zone of inhibition at 1000 µg/mL: azole 1 g/l in liquor with 3 g/l fabric softener; for zone of inhibition at 100 µg/mL: azole 0,1 g/l in liquor with 3 g/l fabric softener; for zone of inhibition at 200 µg/mL: azole 0,2 g/l in liquor with 3 g/l fabric softener
Method: as §1
Zum Vergleich wurde die antimikrobielle Wirkung eines azolverbindungsfreien Wäschenachbehandlungsmittels geprüft. Die Ergebnisse sind in der folgenden Tabelle aufgeführt:
as §2

[3] = tested on: Microsporum gypseum; settings: Nannizzia gypsea, 30°C, read-out: Hemmhof in mm um das Gewebe; for zone of inhibition at 100 µg/mL: azole 0,1 g/l in liquor with 3 g/l fabric softener; for zone of inhibition at 200 µg/mL: azole 0,2 g/l in liquor with 3 g/l fabric softener
Method: as §1
(§3) Zum Vergleich wurde die antimikrobielle Wirkung eines azolverbindungsfreien Wäschenachbehandlungsmittels geprüft. Die Ergebnisse sind in der folgenden Tabelle aufgeführt: […]

[4] = tested on: Trichophyton rubrum; settings: 30°C, read-out: Hemmhof in mm um das Gewebe; for zone of inhibition at 100 µg/mL: azole 0,1 g/l in liquor with 3 g/l fabric softener; for zone of inhibition at 200 µg/mL: azole 0,2 g/l in liquor with 3 g/l fabric softener
Method: as §1, §3

[5] = BW (Baumwollköper), read-out: Hemmhof in mm um das Gewebe
[6] = NY (Nylon), read-out: Hemmhof in mm um das Gewebe
[7] = WO (Wolle), read-out: Hemmhof in mm um das Gewebe
[8] = value in brackets, NY (Nylon), read-out: Größe des Hemmhofes mit diffuser Begrenzung in mm
[9] = value in brackets, BW (Baumwollköper), read-out: Größe des Hemmhofes mit diffuser Begrenzung in mm
[10] = value in brackets, WO (Wolle), read-out: Größe des Hemmhofes mit diffuser Begrenzung in mm

Structure (SMILES)	zone of inhibition at 1000 µg/mL [1, 5]	zone of inhibition at 1000 µg/mL [1, 7]	zone of inhibition at 1000 µg/mL [1, 8]	zone of inhibition at 1000 µg/mL [2, 5]	zone of inhibition at 1000 µg/mL [2, 6]	zone of inhibition at 1000 µg/mL [2, 7]	zone of inhibition at 1000 µg/mL [2, 9]	zone of inhibition at 1000 µg/mL [2, 10]	zone of inhibition at 100 µg/mL [2, 5]	zone of inhibition at 200 µg/mL [2, 5]	zone of inhibition at 100 µg/mL [2, 6]	zone of inhibition at 200 µg/mL [2, 6]	zone of inhibition at 100 µg/mL [2, 7]	zone of inhibition at 200 µg/mL [2, 7]	zone of inhibition at 100 µg/mL ([3]; BW (Baumwollköper))	zone of inhibition at 200 µg/mL ([3]; BW (Baumwollköper))	zone of inhibition at 100 µg/mL ([3]; NY (Nylon))	zone of inhibition at 200 µg/mL ([3]; NY (Nylon))	zone of inhibition at 100 µg/mL ([3]; WO (Wolle))	zone of inhibition at 200 µg/mL ([3]; WO (Wolle))	also measured
C#CC(c1ccccc1)(c1ccccc1)n1ccnc1 [compound 001]	21 mm	21 mm	12 mm	15 mm	9 mm	17 mm	20 mm	20 mm													zone of inhibition at 1000 µg/mL [1, 6]: 7 mm; zone of inhibition at 1000 µg/mL [2, 8]: 12 mm
CC(C)(C)C(c1ccccc1)(c1ccccc1)n1ccnc1 [compound 065]									26 mm	28 mm	25 mm	26 mm	25 mm	28 mm	26 mm	28 mm	14 mm	25 mm	21 mm	25 mm	zone of inhibition at 100 µg/mL ([4]; BW (Baumwollköper)): 25 mm; zone of inhibition at 200 µg/mL ([4]; BW (Baumwollköper)): 29 mm; zone of inhibition at 100 µg/mL ([4]; NY (Nylon)): 18 mm; zone of inhibition at 200 µg/mL ([4]; NY (Nylon)): 23 mm; zone of inhibition at 100 µg/mL ([4]; WO (Wolle)): 23 mm; zone of inhibition at 200 µg/mL ([4]; WO (Wolle)): 28 mm
O=[N+]([O-])CC(c1c(Cl)cccc1Cl)n1cncn1 (centres unmarked) [compound 045]									11 mm	16 mm	8 mm	12 mm	8 mm	11 mm	10 mm	20 mm	7 mm	14 mm	10 mm	12 mm	zone of inhibition at 100 µg/mL ([4]; BW (Baumwollköper)): 12 mm; zone of inhibition at 200 µg/mL ([4]; BW (Baumwollköper)): 25 mm; zone of inhibition at 100 µg/mL ([4]; NY (Nylon)): 7 mm; zone of inhibition at 200 µg/mL ([4]; NY (Nylon)): 7 mm; zone of inhibition at 100 µg/mL ([4]; WO (Wolle)): 10 mm; zone of inhibition at 200 µg/mL ([4]; WO (Wolle)): 18 mm
Cc1ccccc1C1(n2ccnc2)c2ccccc2-c2ccccc21 [compound 009]	10 mm	11 mm	10 mm	7 mm	10 mm	9 mm	10 mm	14 mm													zone of inhibition at 1000 µg/mL [1, 6]: 5 mm; zone of inhibition at 1000 µg/mL [1, 9]: 13 mm; zone of inhibition at 1000 µg/mL [1, 10]: 17 mm; zone of inhibition at 1000 µg/mL [2, 8]: 14 mm
O=[N+]([O-])CC(c1c(Cl)cccc1Cl)n1cnc(Cl)n1 (centres unmarked) [compound 046]									7 mm	13 mm	5 mm	10 mm	13 mm	13 mm	14 mm	16 mm	8 mm	10 mm	8 mm	10 mm	zone of inhibition at 100 µg/mL ([4]; BW (Baumwollköper)): 9 mm; zone of inhibition at 200 µg/mL ([4]; BW (Baumwollköper)): 12 mm; zone of inhibition at 100 µg/mL ([4]; NY (Nylon)): 4 mm; zone of inhibition at 200 µg/mL ([4]; NY (Nylon)): 7 mm; zone of inhibition at 100 µg/mL ([4]; WO (Wolle)): 13 mm; zone of inhibition at 200 µg/mL ([4]; WO (Wolle)): 7 mm
CC(C)(C)C(=O)C(Oc1ccc(Cl)cc1)n1ccnc1 (centres unmarked) [compound 003]	3 mm	10 mm	0.5 mm	5 mm	0.5 mm	9 mm	10 mm	16 mm													zone of inhibition at 1000 µg/mL [1, 9]: 9 mm; zone of inhibition at 1000 µg/mL [1, 10]: 17 mm
